This passage reports inhibition and EC50 results from PMC7997579, “Synthetic Lethality in Pancreatic Cancer: Discovery of a New RAD51-BRCA2 Small Molecule Disruptor That Inhibits Homologous Recombination and Synergizes with Olaparib” (Journal of Medicinal Chemistry, 2020).

SMILES strings stand for the structures.

The experiment deals with homologous recombination in BxPC3 cells. Kind of experiment: Homologous recombination assay (two-plasmid recombination, real-time PCR). The format is cell-based, human. The note with it: Homo sapiens, BXPC-3.

`CCC(=O)N1N=C(c2c(-c3ccccc3)c3cc(Cl)ccc3[nH]c2=O)CC1c1ccc(OC)cc1` (stereo not drawn) [Compound 35d, 6-Chloro-3-(5-(4-methoxyphenyl)-1-propionyl-4,5-dihydro-1H-pyrazol-3-yl)-4-phenylquinolin-2(1H)-one]: for the setting “10 μM, BxPC3, 5 h during plasmid transfection”, the inhibition at 10 µM was approximately 10%. Moreover, the inhibition at 20 µM (20 μM, BxPC3, 5 h during plasmid transfection) was 54%. For the same molecule, the EC50 (BxPC3, 5 h, tested up to 40 μM, polynomial regression, read-out: EC50 (dose causing a 50% inhibition of HR)) turned out to be 18.4 µM.
